What was measured:
C-RAF = target: T1, C-RAF (Homo sapiens, UniProt P04049, Y340E/Y341E); test: In vitro Raf activity determination (Alpha Screen, biotinylated kinase-dead MEK1 substrate), C-Raf; type: biochemical; settings: c-Raf approximately 4 nM; ATP 1 μM; pre-incubation 60 minutes; reaction 1 hour at room temperature
T1 construct: His tag (implied by nickel chromatography) (cleaved yes); StrepII tag (cleaved yes); made in house; host or cells: Sf9 insect cells (baculovirus), CRAF and h14-3-3 zeta co-expressed; MEK1 substrate from E. coli
T1 sequence (P04049 whole entry Y340E/Y341E): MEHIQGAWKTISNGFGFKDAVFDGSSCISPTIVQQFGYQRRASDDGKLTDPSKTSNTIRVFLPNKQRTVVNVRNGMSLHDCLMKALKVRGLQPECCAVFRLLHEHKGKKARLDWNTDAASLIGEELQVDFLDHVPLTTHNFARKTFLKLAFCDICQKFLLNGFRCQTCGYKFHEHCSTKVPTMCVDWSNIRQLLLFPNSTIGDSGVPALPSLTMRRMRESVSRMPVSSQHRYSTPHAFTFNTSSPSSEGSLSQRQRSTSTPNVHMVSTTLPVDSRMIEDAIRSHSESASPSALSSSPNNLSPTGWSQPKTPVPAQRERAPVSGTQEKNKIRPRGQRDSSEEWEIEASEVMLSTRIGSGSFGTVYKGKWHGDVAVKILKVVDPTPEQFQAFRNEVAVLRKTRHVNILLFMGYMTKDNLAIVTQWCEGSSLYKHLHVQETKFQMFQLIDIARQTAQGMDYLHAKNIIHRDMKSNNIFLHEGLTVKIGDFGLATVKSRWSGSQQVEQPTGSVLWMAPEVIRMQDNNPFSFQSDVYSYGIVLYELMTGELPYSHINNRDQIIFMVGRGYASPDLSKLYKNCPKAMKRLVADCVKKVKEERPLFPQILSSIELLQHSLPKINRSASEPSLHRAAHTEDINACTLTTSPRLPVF
T1 sequence (P63104 whole entry partner): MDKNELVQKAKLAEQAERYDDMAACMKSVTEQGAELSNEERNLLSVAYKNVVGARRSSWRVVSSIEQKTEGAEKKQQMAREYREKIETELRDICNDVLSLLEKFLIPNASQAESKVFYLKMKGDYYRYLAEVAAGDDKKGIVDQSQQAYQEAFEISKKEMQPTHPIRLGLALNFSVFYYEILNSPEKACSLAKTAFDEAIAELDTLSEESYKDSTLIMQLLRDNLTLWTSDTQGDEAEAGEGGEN
Method in brief: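 Full-length C-Raf carrying Y340E/Y341E, co-expressed with 14-3-3ζ in Sf9 cells, at approximately 4 nM, with approximately 10 nM biotinylated kinase-dead MEK1 (K97R) and 1 μM ATP, pH 7.5. Compound preincubated 60 min, reaction 1 hour at room temperature. Phospho-MEK read by AlphaScreen; IC50 by non-linear regression.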

b-Raf (V600E) = target: T2, b-Raf (V600E) (Homo sapiens, UniProt P15056, V600E); test: In vitro Raf activity determination (Alpha Screen, biotinylated kinase-dead MEK1 substrate), B-Raf; type: biochemical; settings: b-Raf (V600E) approximately 4 pM; ATP 10 μM; pre-incubation 60 minutes; reaction 3 hours at room temperature
T2 construct: made in house
T2 sequence (P15056 whole entry V600E): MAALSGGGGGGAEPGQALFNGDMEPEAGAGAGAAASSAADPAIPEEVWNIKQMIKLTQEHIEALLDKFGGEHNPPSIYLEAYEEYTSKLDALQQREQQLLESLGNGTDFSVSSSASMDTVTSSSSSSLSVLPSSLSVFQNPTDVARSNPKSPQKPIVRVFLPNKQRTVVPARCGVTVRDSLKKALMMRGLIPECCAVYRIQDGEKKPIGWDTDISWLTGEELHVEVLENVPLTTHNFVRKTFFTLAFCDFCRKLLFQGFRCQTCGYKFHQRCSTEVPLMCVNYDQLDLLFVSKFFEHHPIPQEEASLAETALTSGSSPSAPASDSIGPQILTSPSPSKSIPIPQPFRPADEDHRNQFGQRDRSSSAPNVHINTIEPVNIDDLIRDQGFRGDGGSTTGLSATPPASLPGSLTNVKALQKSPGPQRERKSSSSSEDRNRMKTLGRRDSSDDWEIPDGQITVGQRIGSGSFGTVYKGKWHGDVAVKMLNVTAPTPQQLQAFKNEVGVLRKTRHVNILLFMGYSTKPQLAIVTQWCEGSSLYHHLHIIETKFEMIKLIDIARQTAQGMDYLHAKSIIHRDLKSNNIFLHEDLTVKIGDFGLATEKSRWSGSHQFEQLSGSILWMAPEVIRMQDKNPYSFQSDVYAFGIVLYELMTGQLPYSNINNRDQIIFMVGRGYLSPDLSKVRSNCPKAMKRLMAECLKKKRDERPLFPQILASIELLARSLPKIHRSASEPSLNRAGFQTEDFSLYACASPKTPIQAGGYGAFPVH
Method in brief: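 Activated b-Raf(V600E) (~4 pM) pre-incubated 60 min with compound and biotinylated kinase-dead (K97R) MEK1 (~10 nM), then reacted 3 h at room temperature with 10 μM ATP in 50 mM Tris pH 7.5, 15 mM MgCl2, 0.01% BSA, 1 mM DTT. Phospho-MEK detected by AlphaScreen; IC50 by non-linear regression.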

SMILES | IC50 (C-RAF) | IC50 (b-Raf (V600E))
Cc1ccc(NC(=O)c2cccc(C(F)F)c2)cc1-c1cnc(N2CCNCC2)c(C#N)c1 [Example 163, N-(3-(5-cyano-6-(piperazin-1-yl)pyridin-3-yl)-4-methylphenyl)-3-(difluoromethyl) benzamide] | 0.125 nM | 0.901 nM
Cc1ccc(NC(=O)c2ccnc(C(C)(C)F)c2)cc1-c1cnc(N2CCNCC2)c(C#N)c1 [Example 164, N-(3-(5-cyano-6-(piperazin-1-yl)pyridin-3-yl)-4-methylphenyl)-2-(2-fluoropropan-2-yl)isonicotinamide] | 0.222 nM | 0.683 nM
Cc1ccc(NC(=O)c2ccnc(C(C)(C)O)c2)cc1-c1cnc(N2CCOCC2)c(C#N)c1 [Example 165, N-(3-(5-cyano-6-morpholinopyridin-3-yl)-4-methylphenyl)-2-(2-hydroxypropan-2-yl)isonicotinamide] | 0.356 nM | 1.24 nM
Cc1ncc(NC(=O)c2ccnc(C(C)(C)O)c2)cc1-c1cnc(N2CCOCC2)c(C#N)c1 [Example 166, N-(5′-cyano-2-methyl-6′-morpholino-[3,3′-bipyridin]-5-yl)-2-(2-hydroxypropan-2-yl)isonicotinamide] | 1.59 nM | 6.91 nM
Cc1ncc(NC(=O)c2ccnc(C(C)(C)O)c2)cc1-c1cnc(C2CCOCC2)c(C#N)c1 [Example 167, N-(5′-cyano-2-methyl-6′-(tetrahydro-2H-pyran-4-yl)-[3,3′-bipyridin]-5-yl)-2-(2-hydroxypropan-2-yl)isonicotinamide] | 6.86 nM | 33 nM
Cc1ccc(NC(=O)c2ccnc(C(C)(C)O)c2)cc1-c1cnc(NC2CCOCC2)c(C#N)c1 [Example 168, N-(3-(5-cyano-6-((tetrahydro-2H-pyran-4-yl)amino)pyridin-3-yl)-4-methylphenyl)-2-(2-hydroxypropan-2-yl)isonicotinamide] | 0.487 nM | 1.44 nM
Cc1ccc(NC(=O)c2ccnc(C(F)F)c2)cc1-c1cnc(NC2CCOCC2)c(C#N)c1 [Example 169, N-(3-(5-cyano-6-((tetrahydro-2H-pyran-4-yl)amino)pyridin-3-yl)-4-methylphenyl)-2-(difluoromethyl) isonicotinamide] | 0.154 nM | 0.507 nM
Cc1ncc(NC(=O)c2ccnc(C(C)(C)O)c2)cc1-c1cnc(NC2CCOCC2)c(C#N)c1 [Example 170, N-(5′-cyano-2-methyl-6′-((tetrahydro-2H-pyran-4-yl)amino)-[3,3′-bipyridin]-5-yl)-2-(2-hydroxypropan-2-yl)isonicotinamide] | 3.16 nM | 12.1 nM
Cc1ncc(NC(=O)c2ccnc(C(F)F)c2)cc1-c1cnc(NC2CCOCC2)c(C#N)c1 [Example 171, N-(5′-cyano-2-methyl-6′-((tetrahydro-2H-pyran-4-yl)amino)-[3,3′-bipyridin]-5-yl)-2-(difluoromethyl) isonicotinamide] | 0.925 nM | 4.18 nM
Cc1ncc(NC(=O)c2cccc(C(F)F)c2)cc1-c1cnc(NC2CCOCC2)c(C#N)c1 [Example 172, N-(5′-cyano-2-methyl-6′-((tetrahydro-2H-pyran-4-yl)amino)-[3,3′-bipyridin]-5-yl)-3-(difluoromethyl) benzamide] | 0.356 nM | 1.09 nM
Cc1ncc(NC(=O)c2ccnc(C(F)(F)F)c2)cc1-c1cnc(NC2CCOCC2)c(C#N)c1 [Example 173, N-(5′-cyano-2-methyl-6′-((tetrahydro-2H-pyran-4-yl)amino)-[3,3′-bipyridin]-5-yl)-2-(trifluoromethyl) isonicotinamide] | 0.478 nM | 1.63 nM
Cc1ccc(NC(=O)c2cnnc(C(F)(F)F)c2)cc1-c1cnc(NC2CCOCC2)c(C#N)c1 [Example 174, N-(3-(5-cyano-6-((tetrahydro-2H-pyran-4-yl)amino)pyridin-3-yl)-4-methylphenyl)-6-(trifluoromethyl) pyridazine-4-carboxamide] | 0.177 nM | 0.576 nM
Cc1ncc(NC(=O)c2cnnc(C(F)(F)F)c2)cc1-c1cnc(NC2CCOCC2)c(C#N)c1 [Example 175, N-(5′-cyano-2-methyl-6′-((tetrahydro-2H-pyran-4-yl)amino)-[3,3′-bipyridin]-5-yl)-6-(trifluoromethyl) pyridazine-4-carboxamide] | 1.25 nM | 4.74 nM
COCCNc1ncc(-c2cc(NC(=O)c3ccnc(C(C)(C)C#N)c3)ccc2C)cc1C#N [Example 176, N-(3-(5-cyano-6-((2-methoxyethyl)amino)pyridin-3-yl)-4-methylphenyl)-2-(2-cyanopropan-2-yl)isonicotinamide] | 0.398 nM | 1.58 nM
COCCNc1ncc(-c2cc(NC(=O)c3ccnc(C4(C#N)CC4)c3)ccc2C)cc1C#N [Example 177, N-(3-(5-cyano-6-((2-methoxyethyl)amino)pyridin-3-yl)-4-methylphenyl)-2-(1-cyanocyclopropyl) isonicotinamide] | 0.169 nM | 0.94 nM
COCCNc1ncc(-c2cc(NC(=O)c3ccnc(C(F)F)c3)ccc2C)cc1C#N [Example 178, N-(3-(5-cyano-6-((2-methoxyethyl)amino)pyridin-3-yl)-4-methylphenyl)-2-(difluoromethyl) isonicotinamide] | 0.192 nM | 1.51 nM
COCCNc1ncc(-c2cc(NC(=O)c3cnnc(C(F)(F)F)c3)ccc2C)cc1C#N [Example 179, N-(3-(5-cyano-6-((2-methoxyethyl)amino)pyridin-3-yl)-4-methylphenyl)-6-(trifluoromethyl) pyridazine-4-carboxamide] | 0.588 nM | 4.11 nM
Cc1ncc(NC(=O)c2ccnc(C(F)(F)F)c2)cc1-c1cnc(N2CC(C)(O)C2)c(C#N)c1 [Example 180, N-(5′-cyano-6′-(3-hydroxy-3-methylazetidin-1-yl)-2-methyl-[3,3′-bipyridin]-5-yl)-2-(trifluoromethyl) isonicotinamide] | 1.31 nM | 8.46 nM
Cc1ncc(NC(=O)c2cnnc(C(F)(F)F)c2)cc1-c1cnc(N2CC(C)(O)C2)c(C#N)c1 [Example 181, N-(5′-cyano-6′-(3-hydroxy-3-methylazetidin-1-yl)-2-methyl-[3,3′-bypyridin]-5-yl)-6-(trifluoromethyl) pyridazine-4-carboxamide] | 16.8 nM | 112 nM
Cc1ncc(NC(=O)c2ccnc(C(F)F)c2)cc1-c1cnc(N2CC(C)(O)C2)c(C#N)c1 [Example 182, N-(5′-cyano-6′-(3-hydroxy-3-methylazetidin-1-yl)-2-methyl-[3,3′-bipyridin]-5-yl)-2-(difluoromethyl) isonicotinamide] | 7.49 nM | 58.8 nM
Cc1ncc(NC(=O)c2ccnc(C(C)(F)F)c2)cc1-c1cnc(N2CC(C)(O)C2)c(C#N)c1 [Example 183, N-(5′-cyano-6′-(3-hydroxy-3-methylazetidin-1-yl)-2-methyl-[3,3′-bipyridin]-5-yl)-2-(1,1-difluoroethyl) isonicotinamide] | 0.824 nM | 5.79 nM
Cc1ncc(NC(=O)c2cccc(C(F)F)c2)cc1-c1cnc(N2CC(C)(O)C2)c(C#N)c1 [Example 184, N-(5′-cyano-6′-(3-hydroxy-3-methylazetidin-1-yl)-2-methyl-[3,3′-bipyridin]-5-yl)-3-(difluoromethyl) benzamide] | 1.14 nM | 7.88 nM
Cc1ncc(NC(=O)c2ccnc(C(C)(C)O)c2)cc1-c1cnc(N2CC(C)(O)C2)c(C#N)c1 [Example 185, N-(5′-cyano-6′-(3-hydroxy-3-methylazetidin-1-yl)-2-methyl-[3,3′-bipyridin]-5-yl)-2-(2-hydroxypropan-2-yl)isonicotinamide] | 11 nM | 61 nM
Cc1ncc(NC(=O)c2cnnc(C(C)(C)C#N)c2)cc1-c1cnc(N2CC(C)(O)C2)c(C#N)c1 [Example 186, N-(5′-cyano-6′-(3-hydroxy-3-methylazetidin-1-yl)-2-methyl-[3,3′-bipyridin]-5-yl)-6-(2-cyanopropan-2-yl)pyridazine-4-carboxamide] | 10.2 nM | 52.6 nM
Cc1ncc(NC(=O)c2cccc(S(C)(=O)=O)c2)cc1-c1cnc(N2CC(C)(O)C2)c(C#N)c1 [Example 187, N-(5′-cyano-6′-(3-hydroxy-3-methylazetidin-1-yl)-2-methyl-[3,3′-bipyridin]-5-yl)-3-(methylsulfonyl) benzamide] | 4.2 nM | 26.6 nM
Cc1ncc(NC(=O)c2ccnc(C3CC3)c2)cc1-c1cnc(N2CC(C)(O)C2)c(C#N)c1 [Example 188, N-(5′-cyano-6′-(3-hydroxy-3-methylazetidin-1-yl)-2-methyl-[3,3′-bipyridin]-5-yl)-2-cyclopropyl-isonicotinamide] | 1.76 nM | 9.92 nM
Cc1ncc(NC(=O)c2ccnc(C3(C#N)CC3)c2)cc1-c1cnc(N2CC(C)(O)C2)c(C#N)c1 [Example 189, N-(5′-cyano-6′-(3-hydroxy-3-methylazetidin-1-yl)-2-methyl-[3,3′-bipyridin]-5-yl)-2-(1-cyanocyclopropyl) isonicotinamide] | 0.39 nM | 3.41 nM
Cc1ncc(NC(=O)c2cnnc(C3CC3)c2)cc1-c1cnc(N2CC(C)(O)C2)c(C#N)c1 [Example 190, N-(5′-cyano-6′-(3-hydroxy-3-methylazetidin-1-yl)-2-methyl-[3,3′-bipyridin]-5-yl)-6-cyclopropyl-pyridazine-4-carboxamide] | 29.1 nM | 178 nM
